In ChEMBL document CHEMBL4052645, “Discovery of potent and efficacious pyrrolopyridazines as dual JAK1/3 inhibitors” (Bioorg Med Chem Lett, 2017):

Columns and labels:
[1] = target: Tyrosine-protein kinase JAK3 (Homo sapiens) (UniProt P52333); assay: Inhibition of human JAK3 D2 domain (I781 to S1124 residues) expressed in mammalian expression system assessed as residual activity at 50 nM by KINOMEscan assay relative to control
[2] = target: Serine/threonine-protein kinase 26 (Homo sapiens) (UniProt Q9P289); assay: Inhibition of full lengthhuman MST4 (M1 to P416 residues) expressed in mammalian expression system assessed as residual activity at 50 nM by KINOMEscan assay relative to control
[3] = target: Platelet-derived growth factor receptor beta (Homo sapiens) (UniProt P09619); assay: Inhibition of wild-type human partial length PDGFRB (V582 to Y1009 residues) expressed in bacterial expression system assessed as residual activity at 50 nM by Kinomescan method relative to control
[4] = target: Serine/threonine-protein kinase ULK2 (Homo sapiens) (UniProt Q8IYT8); assay: Inhibition of wild-type human partial length ULK2 (M1 to S301 residues) expressed in mammalian expression system assessed as residual activity at 50 nM by Kinomescan method relative to control
[5] = target: Serine/threonine-protein kinase RIO2 (Homo sapiens) (UniProt Q9BVS4); assay: Inhibition of wild-type human partial length RIOK2 (M1 to D313 residues) expressed in mammalian expression system assessed as residual activity at 50 nM by Kinomescan method relative to control
[6] = target: Death-associated protein kinase 1 (Homo sapiens) (UniProt P53355); assay: Inhibition of wild-type human partial length DAPK1 (M1 to F296 residues) expressed in bacterial expression system assessed as residual activity at 50 nM by Kinomescan method relative to control
Death-associated protein kinase 1 (Homo sapiens), sequence (P53355 whole entry, looked up, the tested form may be a part, canonical isoform): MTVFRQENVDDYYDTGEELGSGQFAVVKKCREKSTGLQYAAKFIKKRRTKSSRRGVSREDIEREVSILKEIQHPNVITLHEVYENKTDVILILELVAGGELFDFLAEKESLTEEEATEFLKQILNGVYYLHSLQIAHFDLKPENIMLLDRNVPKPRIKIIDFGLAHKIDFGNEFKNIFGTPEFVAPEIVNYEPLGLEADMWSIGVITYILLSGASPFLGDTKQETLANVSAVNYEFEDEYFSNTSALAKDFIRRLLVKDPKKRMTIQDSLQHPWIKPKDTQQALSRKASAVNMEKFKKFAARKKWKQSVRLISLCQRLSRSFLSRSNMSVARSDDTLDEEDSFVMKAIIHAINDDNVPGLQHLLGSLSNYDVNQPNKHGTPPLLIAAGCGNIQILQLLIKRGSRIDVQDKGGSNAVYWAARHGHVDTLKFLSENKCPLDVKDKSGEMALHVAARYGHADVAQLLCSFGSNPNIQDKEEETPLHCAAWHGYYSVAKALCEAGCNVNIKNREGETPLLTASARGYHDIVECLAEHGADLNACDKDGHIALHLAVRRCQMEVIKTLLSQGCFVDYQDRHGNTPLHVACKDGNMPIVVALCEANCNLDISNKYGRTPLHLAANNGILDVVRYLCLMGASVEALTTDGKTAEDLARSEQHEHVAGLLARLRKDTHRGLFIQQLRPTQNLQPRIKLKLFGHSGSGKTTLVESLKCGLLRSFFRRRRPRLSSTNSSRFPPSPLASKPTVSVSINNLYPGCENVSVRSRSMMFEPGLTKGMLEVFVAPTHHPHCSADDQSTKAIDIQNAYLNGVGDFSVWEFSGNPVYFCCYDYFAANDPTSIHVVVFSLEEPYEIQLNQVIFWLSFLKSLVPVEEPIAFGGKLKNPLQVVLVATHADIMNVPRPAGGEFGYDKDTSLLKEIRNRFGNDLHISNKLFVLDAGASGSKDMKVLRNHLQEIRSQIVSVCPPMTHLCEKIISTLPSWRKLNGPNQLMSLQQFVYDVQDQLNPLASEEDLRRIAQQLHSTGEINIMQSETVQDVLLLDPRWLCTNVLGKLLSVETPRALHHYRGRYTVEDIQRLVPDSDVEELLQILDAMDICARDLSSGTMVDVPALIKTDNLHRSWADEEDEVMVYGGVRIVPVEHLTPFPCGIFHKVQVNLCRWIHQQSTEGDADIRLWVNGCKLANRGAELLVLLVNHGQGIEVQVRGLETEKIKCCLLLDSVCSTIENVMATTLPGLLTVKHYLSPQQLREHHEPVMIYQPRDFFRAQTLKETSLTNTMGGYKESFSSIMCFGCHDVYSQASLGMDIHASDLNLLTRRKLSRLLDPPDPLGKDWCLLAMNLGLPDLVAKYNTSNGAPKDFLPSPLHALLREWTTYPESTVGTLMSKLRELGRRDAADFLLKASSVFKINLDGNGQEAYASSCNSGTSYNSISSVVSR

[7] = tested on: Phosphatidylinositol 4,5-bisphosphate 3-kinase catalytic subunit alpha isoform (Homo sapiens), P42336 [H1047Y]; assay: Inhibition of human partial length PIK3CA H1047Y mutant (R108 to N1068 residues) expressed in mammalian expression system assessed as residual activity at 50 nM by Kinomescan method relative to control
[8] = tested on: Phosphatidylinositol 4,5-bisphosphate 3-kinase catalytic subunit alpha isoform (Homo sapiens), P42336 [M1043I]; assay: Inhibition of human partial length PIK3CA M1043I mutant (R108 to N1068 residues) expressed in mammalian expression system assessed as residual activity at 50 nM by Kinomescan method relative to control
[9] = target: Wee1-like protein kinase 2 (Homo sapiens) (UniProt P0C1S8); assay: Inhibition of wild-type human partial length WEE1B (M204 to K492 residues) expressed in bacterial expression system assessed as residual activity at 50 nM by Kinomescan method relative to control
[10] = target: Serine/threonine-protein kinase MRCK alpha (Homo sapiens) (UniProt Q5VT25); assay: Inhibition of wild-type human partial length MRCKA (L57 to V418 residues) expressed in bacterial expression system assessed as residual activity at 50 nM by Kinomescan method relative to control
Serine/threonine-protein kinase MRCK alpha (Homo sapiens), sequence (Q5VT25 whole entry, the tested form may be a part): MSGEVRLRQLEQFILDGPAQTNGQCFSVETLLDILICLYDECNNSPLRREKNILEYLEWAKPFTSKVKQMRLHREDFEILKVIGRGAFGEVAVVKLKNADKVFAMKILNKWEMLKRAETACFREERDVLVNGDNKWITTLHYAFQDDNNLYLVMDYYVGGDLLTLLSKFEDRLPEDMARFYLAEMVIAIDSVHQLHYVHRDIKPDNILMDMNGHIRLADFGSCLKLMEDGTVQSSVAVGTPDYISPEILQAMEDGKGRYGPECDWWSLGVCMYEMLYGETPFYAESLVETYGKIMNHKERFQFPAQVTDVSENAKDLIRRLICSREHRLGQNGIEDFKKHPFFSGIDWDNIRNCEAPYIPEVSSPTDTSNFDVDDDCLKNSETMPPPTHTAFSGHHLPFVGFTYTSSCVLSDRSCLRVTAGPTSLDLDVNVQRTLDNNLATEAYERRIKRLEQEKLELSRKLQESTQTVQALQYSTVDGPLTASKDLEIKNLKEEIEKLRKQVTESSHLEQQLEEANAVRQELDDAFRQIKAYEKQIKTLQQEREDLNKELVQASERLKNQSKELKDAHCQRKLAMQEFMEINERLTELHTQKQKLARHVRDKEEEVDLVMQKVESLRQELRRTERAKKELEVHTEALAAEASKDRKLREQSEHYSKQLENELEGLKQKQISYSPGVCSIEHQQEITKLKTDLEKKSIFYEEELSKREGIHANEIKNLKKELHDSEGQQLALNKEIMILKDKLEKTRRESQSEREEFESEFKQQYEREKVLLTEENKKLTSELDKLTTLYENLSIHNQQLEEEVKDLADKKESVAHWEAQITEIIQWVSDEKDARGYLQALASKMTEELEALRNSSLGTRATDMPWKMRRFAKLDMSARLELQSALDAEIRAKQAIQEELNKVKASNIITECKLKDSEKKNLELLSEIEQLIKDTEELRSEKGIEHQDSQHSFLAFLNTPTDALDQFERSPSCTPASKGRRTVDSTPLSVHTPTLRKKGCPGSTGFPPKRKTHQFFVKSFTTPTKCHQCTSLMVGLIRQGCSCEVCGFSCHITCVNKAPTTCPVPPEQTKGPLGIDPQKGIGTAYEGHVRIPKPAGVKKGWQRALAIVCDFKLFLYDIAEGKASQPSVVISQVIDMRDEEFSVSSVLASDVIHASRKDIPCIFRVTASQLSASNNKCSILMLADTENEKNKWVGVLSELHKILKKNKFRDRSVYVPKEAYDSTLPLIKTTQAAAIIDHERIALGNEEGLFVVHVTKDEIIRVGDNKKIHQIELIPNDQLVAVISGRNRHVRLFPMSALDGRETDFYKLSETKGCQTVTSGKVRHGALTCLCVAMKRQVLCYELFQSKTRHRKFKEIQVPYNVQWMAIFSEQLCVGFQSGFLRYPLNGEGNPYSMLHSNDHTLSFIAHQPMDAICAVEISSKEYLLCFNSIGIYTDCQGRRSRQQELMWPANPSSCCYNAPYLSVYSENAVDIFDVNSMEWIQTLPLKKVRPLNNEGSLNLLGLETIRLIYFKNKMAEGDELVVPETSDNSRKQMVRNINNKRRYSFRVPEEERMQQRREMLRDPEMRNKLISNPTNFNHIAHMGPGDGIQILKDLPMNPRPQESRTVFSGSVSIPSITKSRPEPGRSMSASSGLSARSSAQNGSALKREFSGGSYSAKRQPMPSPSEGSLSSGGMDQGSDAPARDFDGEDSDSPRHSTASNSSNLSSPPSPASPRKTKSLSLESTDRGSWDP

[11] = target: Mitogen-activated protein kinase 1 (Homo sapiens) (UniProt P28482); assay: Inhibition of wild-type human full length ERK2 (M1 to S360 residues) expressed in bacterial expression system assessed as residual activity at 50 nM by Kinomescan method relative to control
Mitogen-activated protein kinase 1 (Homo sapiens), sequence (P28482 whole entry, the tested form may be a part): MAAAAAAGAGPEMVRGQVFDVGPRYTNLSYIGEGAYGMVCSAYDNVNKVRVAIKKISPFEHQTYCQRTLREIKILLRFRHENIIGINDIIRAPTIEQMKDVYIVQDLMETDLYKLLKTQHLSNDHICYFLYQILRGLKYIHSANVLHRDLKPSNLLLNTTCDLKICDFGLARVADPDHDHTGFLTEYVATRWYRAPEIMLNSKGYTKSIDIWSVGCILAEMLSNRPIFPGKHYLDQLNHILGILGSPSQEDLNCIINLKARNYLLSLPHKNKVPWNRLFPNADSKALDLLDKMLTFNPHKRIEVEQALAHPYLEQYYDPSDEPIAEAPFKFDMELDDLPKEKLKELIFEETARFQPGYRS

[12] = target: Mitogen-activated protein kinase 6 (Homo sapiens) (UniProt Q16659); assay: Inhibition of wild-type human partial length ERK3 (M1 to P413 residues) expressed in bacterial expression system assessed as residual activity at 50 nM by Kinomescan method relative to control
Mitogen-activated protein kinase 6 (Homo sapiens), sequence (Q16659 whole entry, the tested form may be a part): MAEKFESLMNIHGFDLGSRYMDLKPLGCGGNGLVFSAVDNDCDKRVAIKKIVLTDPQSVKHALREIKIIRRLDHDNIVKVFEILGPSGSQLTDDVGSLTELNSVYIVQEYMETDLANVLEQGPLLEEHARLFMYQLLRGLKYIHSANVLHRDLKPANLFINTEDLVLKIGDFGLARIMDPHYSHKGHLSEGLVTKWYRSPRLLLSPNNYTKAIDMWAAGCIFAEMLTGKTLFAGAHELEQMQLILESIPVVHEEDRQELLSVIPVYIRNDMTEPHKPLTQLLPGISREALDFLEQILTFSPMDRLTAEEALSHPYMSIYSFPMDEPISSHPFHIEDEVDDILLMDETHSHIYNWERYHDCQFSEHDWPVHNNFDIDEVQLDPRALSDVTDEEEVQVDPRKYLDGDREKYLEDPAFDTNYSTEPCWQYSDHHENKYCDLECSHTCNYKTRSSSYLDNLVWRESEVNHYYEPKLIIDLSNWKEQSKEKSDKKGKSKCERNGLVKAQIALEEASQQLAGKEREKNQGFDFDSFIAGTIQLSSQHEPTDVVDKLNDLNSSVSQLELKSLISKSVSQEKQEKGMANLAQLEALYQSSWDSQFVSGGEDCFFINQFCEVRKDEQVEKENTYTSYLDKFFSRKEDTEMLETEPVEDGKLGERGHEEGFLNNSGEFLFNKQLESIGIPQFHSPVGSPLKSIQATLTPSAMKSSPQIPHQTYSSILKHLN

[13] = target: Cyclin-dependent kinase 14 (Homo sapiens) (UniProt O94921); assay: Inhibition of wild-type human full length PFTAIRE1 (M1 to H451 residues) expressed in bacterial expression system assessed as residual activity at 50 nM by Kinomescan method relative to control
Cyclin-dependent kinase 14 (Homo sapiens), sequence (O94921 whole entry, the tested form may be a part): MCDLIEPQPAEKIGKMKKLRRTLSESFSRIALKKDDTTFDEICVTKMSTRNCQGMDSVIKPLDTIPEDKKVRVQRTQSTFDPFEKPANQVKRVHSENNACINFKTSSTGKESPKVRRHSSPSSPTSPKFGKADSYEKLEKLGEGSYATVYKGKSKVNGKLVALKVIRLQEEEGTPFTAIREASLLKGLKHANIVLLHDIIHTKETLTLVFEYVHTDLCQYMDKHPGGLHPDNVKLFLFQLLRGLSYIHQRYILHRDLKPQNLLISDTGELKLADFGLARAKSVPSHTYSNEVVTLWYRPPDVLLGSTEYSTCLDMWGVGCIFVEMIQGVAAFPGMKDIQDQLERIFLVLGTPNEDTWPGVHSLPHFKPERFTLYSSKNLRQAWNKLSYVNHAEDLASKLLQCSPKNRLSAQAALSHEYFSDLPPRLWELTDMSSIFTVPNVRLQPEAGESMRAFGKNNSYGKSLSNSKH

[14] = target: Hepatocyte growth factor receptor (Homo sapiens) (UniProt P08581); assay: Inhibition of wild-type human partial length MET (D1010 to S1367 residues) expressed in bacterial expression system assessed as residual activity at 50 nM by Kinomescan method relative to control
[15] = target: Tyrosine-protein kinase receptor UFO (Homo sapiens) (UniProt P30530); assay: Inhibition of wild-type human partial length AXL (R497 to Y821 residues) expressed in bacterial expression system assessed as residual activity at 50 nM by Kinomescan method relative to control
[16] = target: Homeodomain-interacting protein kinase 2 (Homo sapiens) (UniProt Q9H2X6); assay: Inhibition of wild-type human partial length HIPK2 (M153 to S564 residues) expressed in mammalian expression system assessed as residual activity at 50 nM by Kinomescan method relative to control
[17] = target: Ribosomal protein S6 kinase alpha-4 (Homo sapiens) (UniProt O75676); assay: Inhibition of wild-type human partial length C-terminal MSK2 kinase domain 2 (M375 to T705 residues) expressed in mammalian expression system assessed as residual activity at 50 nM by Kinomescan method relative to control
[18] = target: Tyrosine-protein kinase Tec (Homo sapiens) (UniProt P42680); assay: Inhibition of wild-type human partial length TEC (L341 to D620 residues) expressed in bacterial expression system assessed as residual activity at 50 nM by Kinomescan method relative to control
[19] = target: Activin receptor type-1 (Homo sapiens) (UniProt Q04771); assay: Inhibition of wild-type human ALK2 (C188 to C509 residues) expressed in bacterial expression system assessed as residual activity at 50 nM by Kinomescan method relative to control
[20] = target: Ephrin type-B receptor 1 (Homo sapiens) (UniProt P54762); assay: Inhibition of wild-type human partial length EPHB1 (P589 to T911 residues) expressed in bacterial expression system assessed as residual activity at 50 nM by Kinomescan method relative to control
[21] = target: Vascular endothelial growth factor receptor 1 (Homo sapiens) (UniProt P17948); assay: Inhibition of wild-type human partial length FLT1 (R781 to F1239 residues) expressed in bacterial expression system assessed as residual activity at 50 nM by Kinomescan method relative to control
[22] = target: Serine/threonine-protein kinase Nek5 (Homo sapiens) (UniProt Q6P3R8); assay: Inhibition of wild-type human partial length NEK5 (M1 to M279 residues) expressed in bacterial expression system assessed as residual activity at 50 nM by Kinomescan method relative to control
[23] = target: Interferon-induced, double-stranded RNA-activated protein kinase (Homo sapiens) (UniProt P19525); assay: Inhibition of wild-type human partial length PKR (F247 to C551 residues) expressed in bacterial expression system assessed as residual activity at 50 nM by Kinomescan method relative to control
[24] = target: Serine/threonine-protein kinase SBK1 (Homo sapiens) (UniProt Q52WX2); assay: Inhibition of wild-type human partial length SBK1 (P23 to P348 residues) expressed in mammalian expression system assessed as residual activity at 50 nM by Kinomescan method relative to control
[25] = target: Ankyrin repeat and protein kinase domain-containing protein 1 (Homo sapiens) (UniProt Q8NFD2); assay: Inhibition of wild-type human partial length SGK288 (M1 to A305 residues) expressed in mammalian expression system assessed as residual activity at 50 nM by Kinomescan method relative to control

Row | Structure (SMILES) | Activity [1] [%] | Activity [2] [%] | Activity [3] [%] | Activity [4] [%] | Activity [5] [%] | Activity [6] [%] | Activity [7] [%] | Activity [8] [%] | Activity [9] [%] | Activity [10] [%] | Activity [11] [%] | Activity [12] [%] | Activity [13] [%] | Activity [14] [%] | Activity [15] [%] | Activity [16] [%] | Activity [17] [%] | Activity [18] [%] | Activity [19] [%] | Activity [20] [%] | other results
1 | COc1ccc(-c2cc3c(N[C@@H]4CC[C@](C)(N)C4(C)C)c(C(N)=O)cnn3c2)cn1 | 40 | 23 | 64 | 75 | 99 | 96 | 100 | 100 | 98 | 97 | 100 | 100 | 100 | 87 | 96 | 100 | 100 | 100 | 96 | 88 | Activity [21]: 90%; Activity [22]: 100%; Activity [23]: 99%; Activity [24]: 72%; Activity [25]: 100%
2 | CC1(C)[C@H](Nc2c(C(N)=O)cnn3cc(-c4ccccc4)cc23)CC[C@]1(C)N | 3.8 | 12 | 19 | 36 | 50 | 63 | 66 | 66 | 73 | 74 | 82 | 82 | 83 | 88 | 90 | 97 | 98 | 99 | 100 | 100 | Activity [21]: 100%; Activity [22]: 100%; Activity [23]: 100%; Activity [24]: 100%; Activity [25]: 100%
